For nine compounds, IC50 results are on record in patent publication US20240148821A1, “PHARMACEUTICAL USE OF CYCLIC PEPTIDE COMPOUND” (CHUGAI SEIYAKU KABUSHIKI KAISHA, priority 2021, published 2024).

Bridge positions count the residues as written; N and C are the ends. Square brackets hold non-standard residues; d marks the D form. Peptide text beside a SMILES is read from it. * marks the point of attachment. hPhe(3,5-F2-4-CF3) = N[C@@H](CCc1cc(F)c(C(F)(F)F)c(F)c1)C(=O)O; hPhe(3-Cl-4-CF3) = N[C@@H](CCc1ccc(C(F)(F)F)c(Cl)c1)C(=O)O; NMe3Pal(6-Me) = CN[C@@H](Cc1ccc(C)nc1)C(=O)O; NMeAbu(4,4,4-F3) = CN[C@@H](CC(F)(F)F)C(=O)O; NMeNle(6-CHF2) = CN[C@@H](CCCCC(F)F)C(=O)O; NMePhe(3-F) = CN[C@@H](Cc1cccc(F)c1)C(=O)O; NMePhe(4-F) = CN[C@@H](Cc1ccc(F)cc1)C(=O)O; NMeGly(cPent) = CN[C@H](C(=O)O)C1CCCC1; Pro(4,4-F2) = O=C(O)[C@@H]1CC(F)(F)CN1; NMeCha = CN[C@@H](CC1CCCCC1)C(=O)O; NMeChg = CN[C@H](C(=O)O)C1CCCCC1; NMeD = CN[C@@H](CC(=O)O)C(=O)O; NMeL = CN[C@@H](CC(C)C)C(=O)O; NMeV = CN[C@H](C(=O)O)C(C)C; d(β3hA) = C[C@@H](N)CC(=O)O; NMeS = CN[C@@H](CO)C(=O)O; NMeA = CN[C@@H](C)C(=O)O; NMeAib = CNC(C)(C)C(=O)O; Piperidide = C1CCN(*)CC1; Pyrrolidide = C1CCN(*)C1; Ac5c = NC1(C(=O)O)CCCC1; Aze = O=C(O)[C@@H]1CCN1; CH2CMe2OH = CC(C)(O)C*; Aib = CC(C)(N)C(=O)O; Isopentyl = CC(C)CC*; NEtG = CCNCC(=O)O; Sar = CNCC(=O)O

In this assay the test system is Human pancreatic cancer cell line AsPC-1 (G12D mutation Kras). In words: AsPC-1 cell growth inhibition (AsPC-1 CGI). In kind it is cell-based. The following applies: read-out: AsPC-1 cell growth inhibition, 50% growth inhibitory concentration (IC50 value); 96 hours, CellTiter-Glo, values classified in ranges.
Method: Test compounds were serially dilated with dimethyl sulfoxide, and 200 nL was then dispensed to a U-bottom 96-well plate using Labcyte Echo. […] The cell suspension was dispensed to a. plate containing a test compound at 100 μL per well and incubated at 37° C. in a 5% carbon dioxide gas incubator. 96 hours later, 80 μL of CellTiter-Glo (Promega) was added to each well and fluorescence was measured.
Regarding `CC[C@H](C)[C@@H]1NC(=O)[C@H](CC(C)C)N(C)C(=O)C[C@@H](C(=O)N2CCCCC2)N(C)C(=O)[C@H](CCCCC(F)F)N(C)C(=O)C2(CCCC2)NC(=O)[C@@H]2CCCN2C(=O)[C@H](CCc2ccc(C(F)(F)F)c(Cl)c2)NC(=O)CN(C)C(=O)[C@H](CC2CCCCC2)N(C)C(=O)CN(C)C(=O)CN(C)C1=O` [Compound 653] ([NMeL]I[Sar][Sar][NMeCha][Sar][hPhe(3-Cl-4-CF3)]P[Ac5c][NMeNle(6-CHF2)][NMeD]-Piperidide; lactam N-11), the IC50 was above 500 nM.
With `CC[C@H](C)[C@@H]1NC(=O)[C@H](C)N(C)C(=O)C[C@@H](C)NC(=O)[C@H](C(C)C)N(C)C(=O)C2(CCCC2)NC(=O)[C@@H]2CCCN2C(=O)[C@H](CCc2ccc(C(F)(F)F)c(Cl)c2)NC(=O)[C@H]2CCCN2C(=O)[C@H](Cc2ccc(F)cc2)N(C)C(=O)[C@@H]2CCCN2C(=O)CN(C)C1=O` [Compound 1667] (cyclo([Ac5c][NMeV][d(β3hA)][NMeA]I[Sar]P[NMePhe(4-F)][dP][hPhe(3-Cl-4-CF3)]P)) the figure was above 500 nM; with `CC[C@H](C)[C@@H]1NC(=O)[C@H](CC(C)C)N(C)C(=O)C[C@@H](C(=O)N2CCCC2)N(C)C(=O)[C@H](C2CCCC2)N(C)C(=O)C2(CCCC2)NC(=O)[C@@H]2CC(F)(F)CN2C(=O)[C@H](CCc2cc(F)c(C(F)(F)F)c(F)c2)NC(=O)CN(C)C(=O)[C@H](CC2CCCCC2)N(C)C(=O)CN(C)C(=O)CN(C)C1=O` [Compound 1166] ([NMeL]I[Sar][Sar][NMeCha][Sar][hPhe(3,5-F2-4-CF3)][Pro(4,4-F2)][Ac5c][NMeGly(cPent)][NMeD]-Pyrrolidide; lactam N-11), at most 20 nM; with `CC[C@H](C)[C@@H]1NC(=O)[C@H](CC(C)C)N(C)C(=O)C[C@@H](C(=O)N2CCCCC2)N(C)C(=O)[C@H](C2CCCCC2)N(C)C(=O)C2(CCCC2)NC(=O)[C@H](Cc2ccc(C)nc2)N(C)C(=O)[C@H](CCc2ccc(C(F)(F)F)c(Cl)c2)NC(=O)CN(C)C(=O)[C@H](CC2CCCCC2)N(C)C(=O)[C@@H]2CCN2C(=O)CN(C)C1=O` [Compound 786] ([NMeL]I[Sar][Aze][NMeCha][Sar][hPhe(3-Cl-4-CF3)][NMe3Pal(6-Me)][Ac5c][NMeChg][NMeD]-Piperidide; lactam N-11), above 500 nM.
Consider `CC[C@H](C)[C@@H]1NC(=O)[C@H](CC(F)(F)F)N(C)C(=O)C[C@@H](C(=O)N2CCCC2)N(C)C(=O)[C@H](C2CCCCC2)N(C)C(=O)C2(CCCC2)NC(=O)[C@@H]2CC(F)(F)CN2C(=O)[C@H](CCc2cc(F)c(C(F)(F)F)c(F)c2)NC(=O)CN(C)C(=O)[C@H](CC2CCCCC2)N(C)C(=O)CN(C)C(=O)CN(C)C1=O` [Compound 1281] ([NMeAbu(4,4,4-F3)]I[Sar][Sar][NMeCha][Sar][hPhe(3,5-F2-4-CF3)][Pro(4,4-F2)][Ac5c][NMeChg][NMeD]-Pyrrolidide; lactam N-11), for which the IC50 was at most 20 nM.
With `CC[C@H](C)[C@@H]1NC(=O)[C@H](C)N(C)C(=O)C[C@@H](C(=O)N2CCCCC2)N(C)C(=O)[C@H](C(C)C)N(C)C(=O)C(C)(C)N(C)C(=O)[C@@H]2CCCN2C(=O)[C@H](CCc2ccc(C(F)(F)F)c(Cl)c2)NC(=O)CN(C)C(=O)[C@H](CC2CCCCC2)N(C)C(=O)CN(C)C(=O)CN(C)C1=O` [Compound 507] ([NMeA]I[Sar][Sar][NMeCha][Sar][hPhe(3-Cl-4-CF3)]P[NMeAib][NMeV][NMeD]-Piperidide; lactam N-11) the figure was above 500 nM.
Regarding `CC[C@H](C)[C@@H]1NC(=O)[C@H](CC(C)C)N(C)C(=O)C[C@@H](C(=O)N2CCCCC2)N(C)C(=O)[C@H](C2CCCCC2)N(C)C(=O)C2(CCCC2)NC(=O)[C@@H]2CCCN2C(=O)[C@H](CCc2ccc(C(F)(F)F)c(Cl)c2)NC(=O)CN(C)C(=O)[C@H](CO)N(C)C(=O)CN(C)C(=O)CN(C)C1=O` [Compound 1687] ([NMeL]I[Sar][Sar][NMeS][Sar][hPhe(3-Cl-4-CF3)]P[Ac5c][NMeChg][NMeD]-Piperidide; lactam N-11), the IC50 is above 500 nM.
With `CC[C@H](C)[C@@H]1NC(=O)[C@H](CC(C)C)N(C)C(=O)C[C@@H](C)NC(=O)[C@H](CC(C)C)N(C)C(=O)C(C)(C)NC(=O)[C@H](COCC(C)(C)O)N(C)C(=O)[C@H](CCc2ccc(C(F)(F)F)c(Cl)c2)NC(=O)CN(C)C(=O)[C@H](COCCC(C)C)N(C)C(=O)CN(CC)C(=O)CN(C)C1=O` [Compound 1484] (cyclo([Aib][NMeL][d(β3hA)][NMeL]I[Sar][NEtG][NMeS](Isopentyl)[Sar][hPhe(3-Cl-4-CF3)][NMeS](CH2CMe2OH))) the figure was above 500 nM; with `CC[C@H](C)[C@@H]1NC(=O)[C@H](C)N(C)C(=O)C[C@@H](C(=O)N2CCCCC2)N(C)C(=O)[C@H](C(C)C)N(C)C(=O)C2(CCCC2)NC(=O)[C@H](Cc2cccc(F)c2)N(C)C(=O)[C@H](CCc2ccc(C(F)(F)F)c(Cl)c2)NC(=O)CN(C)C(=O)[C@H](CC2CCCCC2)N(C)C(=O)CN(C)C(=O)CN(C)C1=O` [Compound 945] ([NMeA]I[Sar][Sar][NMeCha][Sar][hPhe(3-Cl-4-CF3)][NMePhe(3-F)][Ac5c][NMeV][NMeD]-Piperidide; lactam N-11), above 500 nM.
